Experimental data published in patent US20110166078A1, “OLIGOSACCHARIDE COMPOUNDS FOR USE IN MOBILISING STEM CELLS” (ENDOTIS PHARMA, priority 2008, published 2011).

Experiments:
[1] = molecular target: PDGF-β (Homo sapiens, UniProt P01127); test: PDGF-β/heparin competition assay by SPR (Biacore); assay type: binding; details: 10 nM PDGF-β, biotinylated heparin, Sensorchip C1
Procedure: Heparin or low molecular weight heparin (6 kDa) from SIGMA were biotinylated at the reducing end and immobilized on a Biacore sensorchip. Different concentrations of the compounds of the present invention were co-incubated at a fixed concentration of targets: FGF-2, PDGF-β, VEGF-A or SDF-1α for 30 minutes. The mixture was then injected onto the streptavidin control (control reference) and HP surfaces. Only free growth factor (GF) or chemokine, i.e. the target molecules not bound to compounds of the present invention, were trapped on the heparin surface. From the binding of free targets on heparin, the percentages of inhibition were calculated and then reported in function of compound concentrations. The plot was fitted with a four-parameter model and IC50 was calculated. The 0% inhibition value was obtained for the injection of the studied target in running-buffer, and the 100% inhibition value was obtained for the injection of the studied target co-incubated with 10 μM of low molecular weight heparin 6 kDa. A PDGF-β/heparin competition assay using the Biacore technology was performed using the following conditions: 10 nM PDGF-β, biotinylated heparin, Reference Streptavidin, Sensorchip C1, HBS-P, Regeneration NaCl 2M. IC50 values of compounds of the present invention were determined using the Biacore technology for the growth factor and chemokine/heparin competition assays that contained the following proteins: VEGF-A, SDF-1α, FGF-2 and PDGF-β.

[2] = system: PDGF-β-induced NHDF proliferation; test: PDGF-β-induced NHDF proliferation assay; assay type: cell-based, human; details: PDGF-β 10 ng/ml; FIGS. 8-12
Procedure: The activities of the compounds of the present invention were tested using a proliferation assay, such as the one described by N. Ali et al., J Pharmacol Sci, 2005, 98, 130-141. A defined number of cells is seeded in each well of a culture plate. In order to stimulate cell proliferation, a growth factor is added in some wells, while others remain unstimulated (basal proliferation conditions). To monitor the effects of substances of interest (oligosaccharides compounds according to the present invention) on basal and growth factor-induced cell proliferation, substances of interest are added at different concentrations (i.e. 0.1, 0.3, 1, 3, 10 or 30 μM) in presence or absence of the growth factor, respectively. After an incubation period of 24 hours, the total number of cells is estimated in all samples (generally through an indirect method, such as incorporation of radioactivity into the newly synthesised DNA or colorimetric assays based on cellular enzyme activities or metabolite production). The total number of cells for the control sample in which no substance of interest nor growth factor have been added is set to 1. The total number of cells in all the other samples is compared to this value in order to obtain the relative proliferation index.
Typically, cells are seeded in 48 or 96-well plates. After 2 h (i.e. the time required for cells to adhere to the support) the normal culture media is replaced by a minimal essential culture media in which cells are grown for 24 h (starvation period). This step is used to reduce cell growth (cell metabolism is slowed down in order to better visualise the growth factor stimulation effect) before adding an angiogenic protein, such as a growth factor i.e. FGF-2 or PDGF-β. No growth factor is added in basal proliferation conditions (independently of the presence or absence of the oligosaccharide of the present invention). To evaluate the inhibition of the oligosaccharide compounds according to the present invention on cell proliferation, the angiogenic protein (growth factor) is added at a fixed concentration (from 5 ng/ml to 10 ng/ml) with increasing amounts of oligosaccharide compounds (0.1, 0.3, 1, 3, 10 or 30 μM), which allows the IC50 value to be estimated (i.e. the oligosaccharide concentration at which the stimulatory effect of the growth factor is inhibited by 50%).
Following addition of the angiogenic protein (growth factor) over a 24 h stimulation period, a commercial reagent containing a substrate for a cellular enzyme is added and incubated for couple of hours. The degradation of the substrate by the enzyme leads to the production of a coloured product which is titrated by absorbance measurement. […]

[3] = system: control and VEGF-A-stimulated angiogenesis (endothelial tubules, HUVEC/NHDF co-culture); test: In vitro angiogenesis assay (endothelial tubule formation, AngioKit); assay type: cell-based, human; details: 30 μM compound; anti-CD31 ELISA and AngioSys image analysis; FIGS. 13-15
Excerpt: These experiments are also known as endothelial tubule formation assays and they are used to evaluate the compound effects on in vitro angiogenesis (the neo-formation of blood vessels from pre-existing ones). This process is critical in tumour development as bloodstream brings all the necessary nutrients and oxygen to cancer cells.
The assay uses a commercially available product (AngioKit) specially designed for screening experiments. The product consists of a 24 or 96-well culture plate containing endothelial and fibroblast cells. A similar assay has been developed “in-house” using 48-well culture plates.
Endothelial cells will, on a ten-day period, develop into a branched network of endothelial tubules or “primitive” blood vessels. This process requires a co-culture with fibroblasts, these latter cells secreting essential growth factors for endothelial cells. At the end of the incubation period (about ten days), angiogenesis is monitored both by ELISA and image analysis software quantifying different blood vessel parameters (number and average length of tubules, field area, number of junctions for example). All reagents and material (except the oligosaccharide compounds, the VEGF-A and the 48-well plate AngioKits) are bought from TCS CellWorks (http://www.tcscellworks.co.uk) which provides: • 24 and 96-well plate AngioKits (including culture medium) • Anti-CD31 (a cell marker specifically expressed on endothelial cells) reagents for ELISA and tubule staining procedures. • AngioSys image analysis software
For home-made 48-well plate AngioKits, NHDF and HUVEC cells were independently purchased while TCS CellWorks culture medium and protocol were used.
The cell medium is replaced with fresh one (day 1) and cells are incubated at 37° C. with the compounds of interest (oligosaccharides and/or angiogenic proteins, such as growth factors). During the course of the experiment, the culture medium (including oligosaccharides and/or angiogenic proteins) is replaced at days 4 and 7.
At day 10, the assay is terminated by the labelling of endothelial cells by an ELISA procedure (indirect colorimetric titration of the endothelial cell number through dosage of the endothelial-specific CD31 marker) and the staining of endothelial tubules. Photographs of stained tubules are taken and analysed with the AngioSys image analysis software.
In the following assay the effects of compounds 239, 240, 246, 247, 248, 249, 252, 254, 255 and 257 on in vitro angiogenesis were measured (all compounds were added at the 30 μM concentration). […] For the data presented in FIG. 13, AngioSys image analyses are shown on FIG. 14. Photographs of endothelial tubules are shown on the side of the anti-CD31 ELISA (see FIGS. 13 and 15).

Chain of PDGF-β (P01127 82-190 limits assumed): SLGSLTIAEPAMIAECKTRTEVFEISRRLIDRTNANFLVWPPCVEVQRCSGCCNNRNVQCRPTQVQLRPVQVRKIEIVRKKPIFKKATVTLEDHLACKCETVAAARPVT

IC50 [1] | SMILES | inhibition of PDGF-β-induced NHDF proliferation [2] | inhibition of control and/or VEGF-A-stimulated angiogenesis [3]
85 nM | C#CCCCOC1OC(COS(=O)(=O)[O-])C(OC2OC(C(=O)[O-])C(OC3OC(COS(=O)(=O)[O-])C(OC4OC(C(=O)[O-])C(OC5OC(COS(=O)(=O)[O-])C(OC6OC(C(=O)[O-])C(OCc7ccccc7)C(OCc7ccccc7)C6OS(=O)(=O)[O-])C(OCc6ccccc6)C5NS(=O)(=O)[O-])C(OCc5ccccc5)C4OS(=O)(=O)[O-])C(OCc4ccccc4)C3NS(=O)(=O)[O-])C(OCc3ccccc3)C2OS(=O)(=O)[O-])C(OCc2ccccc2)C1NS(=O)(=O)[O-].[Na+].[Na+].[Na+].[Na+].[Na+].[Na+].[Na+].[Na+].[Na+].[Na+].[Na+].[Na+] (stereo not drawn) [Compound 239] | inhibit PDGF-β proliferation (starting in the micromolar range) | inhibition of control and/or VEGF-A-stimulated angiogenesis
10.9 nM | C#CCCCOC1OC(COS(=O)(=O)[O-])C(OC2OC(C(=O)[O-])C(OC3OC(COS(=O)(=O)[O-])C(OC4OC(C(=O)[O-])C(OC5OC(COS(=O)(=O)[O-])C(OC6OC(C(=O)[O-])C(OC7OC(COS(=O)(=O)[O-])C(OC8OC(C(=O)[O-])C(OCc9ccccc9)C(OCc9ccccc9)C8OS(=O)(=O)[O-])C(OCc8ccccc8)C7NS(=O)(=O)[O-])C(OCc7ccccc7)C6OS(=O)(=O)[O-])C(OCc6ccccc6)C5NS(=O)(=O)[O-])C(OCc5ccccc5)C4OS(=O)(=O)[O-])C(OCc4ccccc4)C3NS(=O)(=O)[O-])C(OCc3ccccc3)C2OS(=O)(=O)[O-])C(OCc2ccccc2)C1NS(=O)(=O)[O-].[Na+].[Na+].[Na+].[Na+].[Na+].[Na+].[Na+].[Na+].[Na+].[Na+].[Na+].[Na+].[Na+].[Na+].[Na+].[Na+] (stereo not drawn) [Compound 240] | inhibit PDGF-β proliferation (starting in the micromolar range) | inhibition of control and/or VEGF-A-stimulated angiogenesis
